Reference: PMC5177629, “Selective Estrogen Receptor Modulators: Cannabinoid Receptor Inverse Agonists with Differential CB1 and CB2 Selectivity” (Frontiers in Pharmacology, 2016)
Read-outs that look alike come from different tables or passages of the source. Values belong to the compound of their own block, whether it stands above or below them.

Legend:
[1] = molecular target: T1, human cannabinoid type-2 receptors (hCB2) (Homo sapiens, UniProt P34972); test: Competition receptor binding with [3H]CP-55,940, CHO-hCB2 membranes; details: for displacement of [3H]CP-55,940 from hCB2Rs: single 1 μM concentration, 0.2 nM [3H]CP-55,940, CHO-hCB2
T1 construct: expressed in transfected cells; host or cells: CHO cells (CHO-hCB2), membranes or intact cells
T1 sequence (P34972 whole entry): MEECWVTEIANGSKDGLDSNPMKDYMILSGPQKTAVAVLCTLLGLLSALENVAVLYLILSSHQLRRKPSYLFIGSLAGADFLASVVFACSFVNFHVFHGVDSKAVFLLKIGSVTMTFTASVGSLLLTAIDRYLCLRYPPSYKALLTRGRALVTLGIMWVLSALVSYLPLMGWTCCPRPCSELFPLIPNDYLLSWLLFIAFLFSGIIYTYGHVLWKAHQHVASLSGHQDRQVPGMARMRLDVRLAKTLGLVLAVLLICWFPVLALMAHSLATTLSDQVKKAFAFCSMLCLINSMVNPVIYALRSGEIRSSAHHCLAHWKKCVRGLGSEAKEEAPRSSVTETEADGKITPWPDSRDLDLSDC
Procedure: (§1) Membrane homogenates were prepared for competition receptor binding and [^35S]GTPγS binding studies by using pellets previously frozen of CHO-hCB1 or CHO-hCB2 cells as described in ([Franks et al., 2014]). In short, pellets were thawed on ice, combined in a 40 ml glass Dounce homogenizer and homogenized in 20 ml of cold buffer (50 mM HEPES at pH 7.4, 3 mM MgCl2, and 1 mM EGTA) using 10 strokes. Homogenates were then centrifuged at 40,000 × g for 10 min at 4°C. After discarding the supernatant, pellets were homogenized and centrifuged twice more. Final pellets were re-suspended in ice-cold 50 mM HEPES, pH 7.4, aliquoted and stored at -80°C for future use. Protein concentration was determined the same day, prior to freezing, using BCA^TM Protein Assay (Thermo Fisher Scientific, Waltham, MA, USA).
(§2) The final volume of each sample was 1 ml, containing 50 mM Tris-HCl buffer (pH 7.4), 0.05% bovine serum albumin, 5 mM MgCl2, increasing concentrations of non-radioactive competing SERM ligands, and either 100 μg of CHO-hCB1 or 50 μg of CHO-hCB2 membrane homogenates. Non-specific binding was defined by radioactivity remaining in the presence of 1 μM of the non-radioactive CB1/CB2 agonist WIN-55,212-2. Each sample condition was performed in triplicate and allowed to reach equilibrium at room temperature for 90 min. Reactions were terminated by rapid vacuum filtration through Whatman GF/B glass fiber filters (Brandel, Inc.), followed by four 4 ml washes of ice-cold filtration buffer (50 mM Tris at pH 7.4 and 0.05% BSA). Filter punches of individual samples were placed in scintillation vials containing 4 mls of ScintiverseTM BD cocktail scintillation fluid (Fisher Scientific, Pittsburg, PA, USA). Final counts were determined using liquid scintillation spectrophotometry (Tri Carb 2100 TR Liquid Scintillation Analyzer, Packard Instrument Company, Meriden, CT, USA) after overnight incubation.
(§3) Statistical analyses were conducted by utilizing GraphPad Prism v6.0g (GraphPad Software, Inc.; San Diego, CA, USA). IC50 values from competition receptor binding curves were derived by non-linear regression. Experimental IC50 values were converted to Ki values (a measure of receptor affinity) by using the Cheng–Prusoff equation ([Cheng and Prusoff, 1973]). Non-linear regression analysis of concentration-effect curves was also used to determine potency (ED50 or IC50) and efficacy (Emax or Imax) for modulation of GTPγS and adenylyl cyclase activity, respectively. All IC50, EC50, Ki, and Kb values were converted to pEC50, pIC50, pKi, and pKb values in order to permit use of parametric statistical analyses. For all experiments comparing three or more values, an one-way ANOVA was employed, followed by Dunnett’s or Tukey’s post hoc tests. For comparisons of two values, an unpaired t-test was utilized. To determine significant radioligand displacement or modulation of G-protein activity compared to basal levels, a one-sample t-test was employed.
(§4) For initial comparison of potential SERM binding to CBRs, 14 commercially available compounds from 5 structurally distinct classes (Figure 1) were subjected to a radioligand binding screen (Figure 2).

[2] = molecular target: T2, human cannabinoid type-1 receptors (hCB1) (Homo sapiens, UniProt P21554); test: Competition receptor binding with [3H]CP-55,940, CHO-hCB1 membranes
T2 construct: host or cells: CHO cells (CHO-hCB1), membranes or intact cells
T2 sequence (P21554 whole entry): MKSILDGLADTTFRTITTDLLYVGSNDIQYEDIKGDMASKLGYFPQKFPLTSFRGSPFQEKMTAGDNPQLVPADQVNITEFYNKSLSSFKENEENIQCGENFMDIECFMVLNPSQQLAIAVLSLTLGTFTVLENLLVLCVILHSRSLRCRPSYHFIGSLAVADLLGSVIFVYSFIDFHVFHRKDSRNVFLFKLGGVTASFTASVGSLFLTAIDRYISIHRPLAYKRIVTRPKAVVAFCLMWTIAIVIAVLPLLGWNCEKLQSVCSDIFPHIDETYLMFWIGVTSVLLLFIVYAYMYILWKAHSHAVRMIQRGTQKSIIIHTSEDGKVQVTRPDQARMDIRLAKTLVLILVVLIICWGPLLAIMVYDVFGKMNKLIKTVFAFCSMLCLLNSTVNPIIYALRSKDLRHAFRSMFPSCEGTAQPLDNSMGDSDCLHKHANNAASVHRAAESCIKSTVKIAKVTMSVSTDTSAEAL
Procedure: as §1, with “In” for “Membrane homogenates were prepared for competition receptor binding and [^35S]GTPγS binding studies by using pellets previously frozen of CHO-hCB1 or CHO-hCB2 cells as described in ([Franks et al., 2014]). In”
as §2, with “Non-specific binding was defined by radioactivity remaining in the presence of 1 μM of the non-radioactive CB1/CB2 agonist WIN-55,212-2.” left out
as §3, with “Experimental IC50 values were converted to Ki values (a measure of receptor affinity) by using the Cheng–Prusoff equation ([Cheng and Prusoff, 1973]).” left out
as §4

[3] = Ki, [3H]CP-55,940 Binding CHO-hCB2, CHO-hCB2 membranes, Cheng-Prusoff from IC50

SMILES: Cc1c(-c2ccc(O)cc2)n(Cc2ccc(OCCN3CCCCCC3)cc2)c2ccc(O)cc12 [BAZ, bazedoxifene]
- Ki ([1]; pKi, [3H]CP-55,940 Binding CHO-hCB2): 0.254 µM
- displacement of [3H]CP-55,940 from hCB2Rs [1]: 73%

- Ki ([2]; CHO-hCB1 membranes, Cheng-Prusoff from IC50): 0.957 µM
- Selectivity (CB1/CB2) ([2]; ratio of Ki hCB1 / Ki hCB2): 0.74
- Ki ([1]; CHO-hCB2 membranes, read-out: affinity for hCB2Rs (Ki)): 1 to 4 µM
- Ki [1, 3]: 1.3 µM
SMILES: COc1ccc2c(c1)CCC(c1ccccc1)=C2c1ccc(OCCN2CCCC2)cc1 [NAF, nafoxidine]

SMILES: O=C(c1ccc(OCCN2CCCCC2)cc1)c1c(-c2ccc(O)cc2)sc2cc(O)ccc12 [RAL, raloxifene]
- Ki [1, 3]: ~0.2 µM
- Ki ([1]; pKi, [3H]CP-55,940 Binding CHO-hCB2, CHO-hCB2 membranes, mean ± SEM): 0.24 µM
- displacement of [3H]CP-55,940 from hCB2Rs [1]: 80%

SMILES: OCCOc1ccc(/C(=C(/CCCl)c2ccccc2)c2ccccc2)cc1 [OSP, ospemifene]
- Ki [2]: 0.753 µM
- displacement of [3H]CP-55,940 from hCB1Rs ([2]; single 1 μM concentration, 0.2 nM [3H]CP-55,940, CHO-hCB1): approximately 50%
- Ki [1, 3]: 3.72 µM
- Ki ([1]; affinity for hCB2Rs (Ki), CHO-hCB2 membranes): 1 to 4 µM
